This note sets out measurements from patent US9890429B2, “Compositions, kits, and methods for the identification, assessment, prevention, and therapy of cancer” (Dana-Farber Cancer Institute, Inc., priority 2012, dated 2018).

For assay [1], the system named is RB1 phosphorylation (pS780 and pT821). Particulars: DLBCL cell lines; 24 hr treatment. As for the experimental part:
For SDS-PAGE, total cell lysates were obtained using NP-40 lysis buffer (Tris-HCl 50 mM pH7.4, NaCl 150 mM, NaF 5 mM, EDTA 5 mM, 1% NP-40) supplemented with 1 mM activated Na3VO4 and complete proteinase inhibitor cocktail (Roche). […] After washing, membranes were probed against the indicated antigens following the manufacturer's recommendation. […] For chemoluminescence detection, enhanced ECL (GE Healthcare, Piscataway, N.J.) was used. After stripping, membranes were re-probed for GAPDH (1:3000, Santa Cruz Biotechnology) as loading control.

The subject of assay [2] is luciferized mCherry+ (Toledo, Ly4 or Ly1) DLBCL cells xenotransplanted in NSG mice. Description: In vivo efficacy in DLBCL xenografts (bioluminescence, flow cytometry, immunohistochemistry). Set-up: species or system mouse. Particulars: multiple DLBCL xenograft models in NSG mice, 7.5 mg/kg daily IP vs vehicle. In general terms: Flow cytometry measures light scatter and fluorescence of single cells or particles in a stream.

For assay [3], the system named is DLBCL cell lines. Put plainly: Apoptosis (Annexin V/7-AAD staining, subG1 peaks). The class given is cell-based, human. Conditions: subG1 peaks and Annexin V/7-AAD staining, 72 hr treatment. The method, then: Cellular apoptosis was analyzed with an APC AnnexinV/7ADD Apoptosis Detection kit (BD Pharmingen). AnnexinV/7AAD plots and cell cycle graphics were generated using FlowJo software V7.6.1 for Windows (Tree Star).

Assay [4] relates to DLBCL cell lines. Description: Proliferation of DLBCL cell lines after chemical CDK inhibition (alamarBlue assay). In kind it is cell-based, human. The method, then:
The identities of the DLBCL cell lines used in this study were confirmed via STR profiling (PowerPlex®1.2 system [Promega]) and the online verification services of the cell banks JCRB and DSMZ (available on the World Wide Web at cellbank.nibio.go.jp/cellbank_e.html and dsmz.de/STRanalysis). All DLBCL cell lines were cultured at 37° C. in 5% C02. SU-DHL-6, SU-DHL-7, DB and Toledo were propagated in RPMI; OCI-Ly3, OCI-Ly18 and OCI-Ly19 were grown in IMDM. HEK293T cells for lentiviral production were cultured in DMEM. All media were supplemented with 10 mM HEPES buffer, 2 mM L-glutamine, 50 U/mL penicillin, 50 U/mL streptomycin and 10% heat-inactivated fetal calf serum (Invitrogen). To ensure that cells were in logarithmic growth phase, cells were diluted to 200,000 cells/ml 48 h prior to any experiment.
The pan-CDK inhibitor, flavopiridol (Selleck Chemicals, Houston, USA), was suspended in DMSO (10 mM stock solution) and stored at −20° C. until use. Following treatment, proliferation of DLBCL cell lines was assessed with the alamarBlue assay (Invitrogen, Carlsbad, Calif.).

Assay [5] deals with DLBCL cell lines. Description: Cell cycle analysis (Hoechst 33342, flow cytometry). The class given is cell-based, human. Conditions: 72 hr treatment. The method, then: Cells were re-suspended in 1 ml of growth medium supplemented with 10 μg/ml Hoechst 33342 (Molecular Probes, Invitrogen) as final concentration. After 60 min at 37° C. in the dark. Analysis was performed on a FACSCAriallu cytometer (BD Biosciences) using the UV laser 350 nm with 20 mW. The cell cycle was plotted as histogram after excluding doublets.
Cell cycle analysis was performed at 72 h using Hoechst 33342 (Supplemental Methods) and a FACSCAriaIIu cytometer (BD Biosciences) with a UV laser at 350 nm with 20 mW.

Regarding `CN1CC[C@H](c2c(O)cc(O)c3c(=O)cc(-c4ccccc4Cl)oc23)[C@H](O)C1` [flavopiridol], in assay [1], the “phosphorylation of RB1 at CDK4/6 and CDK2-specific sites (pS780 and pT821)” value is “decreased the phosphorylation of RB1”. Further, the “lymphoma infiltration of bone marrow and spleen” value in assay [2] was “significantly reduced”. For the same compound, the tumor growth result in assay [2] (bioluminescence) was “significantly reduced tumor growth”. Further, the apoptosis result in assay [3] is “increased apoptosis”. For the same compound, in assay [4] (DHL7, DLBCL cell line with single copy RB1 loss, lower doses), the “sensitivity of proliferation to lower doses” value is “less sensitive”. In assay [4] (DLBCL cell lines with decreased or absent p53 activity and CNAs of cell cycle components, nanomolar doses, 1-4 days), the cellular proliferation entry is given as “decreased the cellular proliferation”. Also, the “cell cycle (S phase, arrest)” value in assay [5] is “decreased S phase and induced cell cycle arrest”.
